The values that follow come from US6825018B1, “Sorbitol dehydrogenase, gene encoding the same and use thereof” (priority 1999, dated 2004).

SMILES strings stand for the structures.

What all share (assay type): biochemical, Gluconobacter oxydans G624
The target of assay [1] is T1, His-tagged SLDH (Gluconobacter oxydans, UniProt Q9KWR5). Kind of assay: SLDH activity: substrate specificity. Conditions: glycine/NaOH buffer pH 10.1, coenzyme NADP+; for Activity: substrate varied.
For assay [2], the target named is T1, His-tagged SLDH. Kind of assay: SLDH activity: coenzyme dependency and active pH range (increase in NAD(P)H, absorbance at 340 nm). As to conditions: for Activity: substrate sorbitol, 25° C., coenzyme varied. As for the experimental part:
To a solution containing 0.1 ml of 50 mM NAD^+ (or NADP^+), 0.2 ml of 500 mM buffer, 10 μl of His-tagged SLDH solution (2.1 μg protein) prepared in Example 2(4) and distilled water (0.29 ml) was added to 500 mM sorbitol (0.4 ml) to start the reaction (25° C.), and increase in NADH (or NADPH) was measured by a spectrophotometer (UV-2200; Shimadzu) based on absorbance at 340 nm as an index. For the reaction solutions having pH 10.1 and pH 9.0, glycine/NaOH buffer was used, and for reaction solutions having pH 8.0 and pH 7.0, potassium phosphate buffer was used. The enzyme activity (1 unit) was defined to be an amount to generate 1 μmol of NADH (or NADPH) per minute. The molecular extinction coefficient of NAD(P)H was 6.3 mM^−1 cm^−1. The protein amount was measured with bovine serum albumin (BSA) as a standard by the Lowry method.

Assay [3] concerns the target T1, His-tagged SLDH. Nature of the assay: Confirmation of SLDH activity: reaction of purified His-tagged SLDH with sorbitol, product analysis. As to conditions: 10 mM (1.82 mg/ml) sorbitol, pH 10.1, 5 mM NADP^+, 25° C., 24 hours. As for the experimental part: In the same manner as in the above-mentioned (2) except that the cell-free extract to be applied was by 10 ml, the resin after His-tagged SLDH adsorption was washed 6 times, and His-tagged SLDH was eluted with 50 mM imidazole and 100 mM NaCl-containing 20 mM Tris-HCl (5 ml, pH 8.0), His-tagged SLDH was purified. The obtained His-tagged SLDH was reacted with sorbitol and the resulting product was analyzed. The composition of the reaction solution (2 ml) was 10 mM (1.82 mg/ml) sorbitol, 0.1 M glycine/NaOH buffer (pH 10.1), 5 mM NADP^+ and His-tagged SLDH 0.2 ml (41.4 μg protein) and the reaction was carried out at 25° C. for 24 hours. […] Thus, His-tagged SLDH purified by cobalt type IMAC was confirmed to be sorbitol dehydrogenase that oxidizes sorbitol and generates sorbose.

Setting [4] is: pH 7.0, potassium phosphate buffer.
Where [5] appears, read: pH 8.0, potassium phosphate buffer.

T1 sequence (Q9KWR5 entry or part of it): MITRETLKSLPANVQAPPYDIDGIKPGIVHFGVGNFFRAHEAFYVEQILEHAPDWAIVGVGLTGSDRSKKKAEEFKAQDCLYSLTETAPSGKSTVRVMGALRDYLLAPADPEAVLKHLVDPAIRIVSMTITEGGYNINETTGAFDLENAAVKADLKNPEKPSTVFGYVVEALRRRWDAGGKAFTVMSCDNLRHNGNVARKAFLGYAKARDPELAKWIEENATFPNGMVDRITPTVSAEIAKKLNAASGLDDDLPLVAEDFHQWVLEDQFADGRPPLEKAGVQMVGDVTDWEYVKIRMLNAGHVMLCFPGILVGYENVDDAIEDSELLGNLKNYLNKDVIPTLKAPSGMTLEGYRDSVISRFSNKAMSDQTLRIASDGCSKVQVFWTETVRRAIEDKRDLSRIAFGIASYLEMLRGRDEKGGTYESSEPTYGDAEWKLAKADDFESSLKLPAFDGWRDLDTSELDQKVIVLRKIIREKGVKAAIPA

`O[C@H]1[C@H](O)[C@@H](O)[C@H](O)[C@@H](O)[C@H]1O` [inositol]: in assay [1], the “Use as substrate by SLDH (in words)” value is “no action” and the Activity came out at 0 U/mg protein.
With `NC(=O)c1ccc[n+]([C@@H]2O[C@H](COP(=O)([O-])OP(=O)(O)OC[C@H]3O[C@@H](n4cnc5c(N)ncnc54)[C@H](OP(=O)(O)O)[C@@H]3O)[C@@H](O)[C@H]2O)c1` [NADP^+], the “Coenzyme specificity (in words)” value in assay [2] (NAD^+ versus NADP^+ as coenzyme) is on record as “higher specificity”. The Activity in assay [2] (setting [4]) is 4.2 U/mg protein; in assay [2] (setting [5]), 22.9 U/mg protein; in assay [2] (pH 9.0, glycine/NaOH buffer), 30.0 U/mg protein; in assay [2] (pH 10.1, glycine/NaOH buffer) it was 130.2 U/mg protein.
For `OC[C@@H](O)[C@@H](O)[C@H](O)[C@H](O)CO` [mannitol], in assay [1], the “Use as substrate by SLDH (in words)” value is “could utilize” and the Activity was determined as 85.7 U/mg protein.
For `OCC(O)CO` [glycerol] the same measures were “no action” and 0 U/mg protein.
`O=C(CO)[C@H](O)[C@@H](O)[C@H](O)CO` [sorbose]: the sorbose generated in assay [3] amounted to 1.12 mg/mL.
Turning to `OC[C@@H](O)[C@H](O)[C@@H](O)CO` [xylitol], in assay [1], the “Use as substrate by SLDH (in words)” value is recorded as “no action” and the Activity is recorded as 0 U/mg protein.
Regarding `NC(=O)c1ccc[n+]([C@@H]2O[C@H](COP(=O)([O-])OP(=O)(O)OC[C@H]3O[C@@H](n4cnc5c(N)ncnc54)[C@H](O)[C@@H]3O)[C@@H](O)[C@H]2O)c1` [NAD^+], the Activity was 0.1 U/mg protein in assay [2] (setting [4]); 1.2 U/mg protein in assay [2] (setting [5]); 3.4 U/mg protein in assay [2] (pH 9.0, glycine/NaOH buffer); 8.1 U/mg protein in assay [2] (pH 10.1, glycine/NaOH buffer).
On to `OC[C@@H](O)[C@@H](O)[C@@H](O)CO` [ribitol], for which, in assay [1], the “Use as substrate by SLDH (in words)” value was “no action” and the Activity is listed as 0 U/mg protein.
For `OC[C@@H](O)C(O)[C@H](O)CO` [arabitol] the same measures were “could utilize” and 88.1 U/mg protein.
The compound `OC[C@@H](O)[C@@H](O)[C@H](O)[C@@H](O)CO` [sorbitol] yielded an Activity in assay [1] of 130.2 U/mg protein. Further, the “conversion efficiency (sorbitol to sorbose)” value in assay [3] (41.4 μg protein) amounted to 62%. Besides, the sorbitol remaining in assay [3] stood at 0.70 mg/mL.
